Test [1] has as its target T1, 5-HT2C (Homo sapiens, UniProt P28335).
T1 sequence (P28335 33-458): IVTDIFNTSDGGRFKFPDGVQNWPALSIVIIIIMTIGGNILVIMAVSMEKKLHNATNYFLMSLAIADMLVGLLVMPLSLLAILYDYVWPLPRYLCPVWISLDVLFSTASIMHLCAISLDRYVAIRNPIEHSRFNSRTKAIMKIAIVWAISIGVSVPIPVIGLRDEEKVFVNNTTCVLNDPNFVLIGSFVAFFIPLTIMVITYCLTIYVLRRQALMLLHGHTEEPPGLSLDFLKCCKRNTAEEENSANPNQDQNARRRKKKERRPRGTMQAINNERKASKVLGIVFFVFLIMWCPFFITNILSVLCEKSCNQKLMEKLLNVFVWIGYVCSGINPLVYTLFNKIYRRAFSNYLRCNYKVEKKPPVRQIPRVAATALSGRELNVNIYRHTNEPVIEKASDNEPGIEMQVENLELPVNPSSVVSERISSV
As to the kind of experiment: 5-HT2C IP-1, agonist. It counts as cell-based.

In test [2] the target is T1, 5-HT2C. As to the kind of experiment: 5-HT2C IP-1, antagonist. In kind it is cell-based.
The target of test [3] is T2, 5-HT1A (Homo sapiens, UniProt P08908).
T2 sequence (P08908 1-422): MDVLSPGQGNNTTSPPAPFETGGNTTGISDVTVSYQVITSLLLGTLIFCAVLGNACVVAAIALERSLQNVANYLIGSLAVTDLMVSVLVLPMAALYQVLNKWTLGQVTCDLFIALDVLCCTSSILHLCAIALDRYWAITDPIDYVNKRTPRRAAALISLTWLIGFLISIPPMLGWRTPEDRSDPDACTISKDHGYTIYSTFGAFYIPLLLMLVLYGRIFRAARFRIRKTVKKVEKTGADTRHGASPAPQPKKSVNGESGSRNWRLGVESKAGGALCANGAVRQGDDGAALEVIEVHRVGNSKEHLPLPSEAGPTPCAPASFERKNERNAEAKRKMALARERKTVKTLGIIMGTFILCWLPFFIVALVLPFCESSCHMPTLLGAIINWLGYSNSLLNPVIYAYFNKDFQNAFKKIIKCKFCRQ
Kind of test: 5-HT1A [35S]GTPγS, agonist. In kind it is biochemical. Background: GTPγS resists hydrolysis and so accumulates on activated G proteins.

For test [4], the target named is T3, D2LR (Homo sapiens, UniProt P14416).
T3 construct: expressed in transfected cells; host or cells: HEK 293T, transient
It counts as cell-based. Particulars: GPA GαoA assay.

The target in test [5] is T3, D2LR. In kind it is cell-based. The conditions noted are these: miniG recruitment assay.
Test [6] deals with cocaine self-administration in rats. Kind of test: cocaine self-administration under progressive ratio (PR) break-point. Particulars: i.p. 30 min prior. It counts as in vivo, Long-Evans rats.
In test [7] the target is T4, 5-HT2A (Homo sapiens, UniProt P28223). In kind it is cell-based. Particulars: antagonist mode.
Test [8] deals with T5, 5-HT2B (Homo sapiens, UniProt P41595). Kind of test: 5-HT2B IP-1, antagonist. It counts as cell-based. The conditions noted are these: for 5-HT2B IP-1 Emax ± SEM: antagonist mode.
The target of test [9] is T4, 5-HT2A. As to the kind of experiment: 5-HT2A IP-1, agonist. It counts as cell-based. Particulars: agonist mode.
In test [10] the target is T5, 5-HT2B. Kind of test: 5-HT2B IP-1, agonist. It counts as cell-based. Particulars: agonist mode.
Test [11] deals with T2, 5-HT1A. Kind of test: 5-HT1A off-target binding, [3H]-8-OH-DPAT. Particulars: read-out: 5-HT1A Ki ± SEM.
The target of another test is T6, D4R (Homo sapiens, UniProt P21917).
T6 sequence (P21917 1-419): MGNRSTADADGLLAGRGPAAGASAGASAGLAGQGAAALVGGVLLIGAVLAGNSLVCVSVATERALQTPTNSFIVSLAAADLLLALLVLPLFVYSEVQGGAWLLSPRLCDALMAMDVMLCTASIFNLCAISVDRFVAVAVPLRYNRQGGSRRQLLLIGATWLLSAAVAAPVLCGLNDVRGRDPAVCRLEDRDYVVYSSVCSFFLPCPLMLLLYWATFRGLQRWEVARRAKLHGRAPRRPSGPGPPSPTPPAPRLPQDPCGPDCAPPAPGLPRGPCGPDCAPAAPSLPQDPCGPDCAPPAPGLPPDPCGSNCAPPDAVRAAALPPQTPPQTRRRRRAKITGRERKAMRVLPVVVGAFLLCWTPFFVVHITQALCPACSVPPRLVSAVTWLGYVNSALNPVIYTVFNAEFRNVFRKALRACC
Kind of test: D4R off-target binding, [3H]-spiperone. Particulars: read-out: D4R Ki ± SEM.

The target in test [12] is T5, 5-HT2B. Kind of test: 5-HT2B off-target binding, [3H]5-HT. Particulars: read-out: 5-HT2B Ki ± SEM.

Read-outs that look alike come from different tables or passages of the source. A value given as a limit tells only on which side of the number the result lay.

T3 sequence (P14416 whole entry): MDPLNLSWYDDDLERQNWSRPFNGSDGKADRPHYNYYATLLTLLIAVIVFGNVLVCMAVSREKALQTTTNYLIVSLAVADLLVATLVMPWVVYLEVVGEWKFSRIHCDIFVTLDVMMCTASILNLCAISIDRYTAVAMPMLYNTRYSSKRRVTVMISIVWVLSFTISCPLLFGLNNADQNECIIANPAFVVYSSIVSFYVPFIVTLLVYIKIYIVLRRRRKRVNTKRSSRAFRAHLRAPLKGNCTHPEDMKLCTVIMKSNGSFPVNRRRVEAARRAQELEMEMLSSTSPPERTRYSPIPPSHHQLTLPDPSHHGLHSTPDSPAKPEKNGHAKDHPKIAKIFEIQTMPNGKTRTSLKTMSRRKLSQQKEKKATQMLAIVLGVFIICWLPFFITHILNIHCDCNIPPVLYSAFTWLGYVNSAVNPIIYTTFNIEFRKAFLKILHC
T5 sequence (P41595 whole entry, species assumed): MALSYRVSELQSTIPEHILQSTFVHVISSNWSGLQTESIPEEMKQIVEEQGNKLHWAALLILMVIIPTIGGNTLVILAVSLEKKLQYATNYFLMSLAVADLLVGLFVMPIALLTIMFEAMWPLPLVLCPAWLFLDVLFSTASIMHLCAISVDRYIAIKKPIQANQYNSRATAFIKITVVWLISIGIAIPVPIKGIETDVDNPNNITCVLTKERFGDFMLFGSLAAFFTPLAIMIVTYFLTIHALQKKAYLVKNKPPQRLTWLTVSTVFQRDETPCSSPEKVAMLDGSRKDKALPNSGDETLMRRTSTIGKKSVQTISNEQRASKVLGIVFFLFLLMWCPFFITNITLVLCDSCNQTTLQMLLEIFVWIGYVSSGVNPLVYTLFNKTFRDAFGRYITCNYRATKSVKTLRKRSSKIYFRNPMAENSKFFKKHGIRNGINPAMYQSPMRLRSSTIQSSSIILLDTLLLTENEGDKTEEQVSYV
T4 sequence (P28223 whole entry, species assumed): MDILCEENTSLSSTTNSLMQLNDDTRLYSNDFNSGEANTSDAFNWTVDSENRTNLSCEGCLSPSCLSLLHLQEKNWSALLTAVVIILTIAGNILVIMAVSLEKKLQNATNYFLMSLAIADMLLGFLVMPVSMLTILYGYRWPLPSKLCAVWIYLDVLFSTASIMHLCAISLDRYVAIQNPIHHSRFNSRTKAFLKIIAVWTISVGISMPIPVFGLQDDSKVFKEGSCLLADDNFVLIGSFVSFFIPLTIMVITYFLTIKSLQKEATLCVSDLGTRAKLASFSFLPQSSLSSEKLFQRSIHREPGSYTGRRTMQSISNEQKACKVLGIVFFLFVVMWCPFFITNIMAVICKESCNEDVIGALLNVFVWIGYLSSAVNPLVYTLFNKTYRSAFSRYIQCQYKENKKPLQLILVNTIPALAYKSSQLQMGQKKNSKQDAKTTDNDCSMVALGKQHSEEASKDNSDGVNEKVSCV

Broadly, the EC50 is the concentration that produces a half-maximal response. Usually IC50 stands for the concentration that inhibits the measured activity by half. A low value points to greater potency. Regarding `CN(C)C(=O)N[C@H]1CC[C@H](CCN2CCN(c3cccc(Cl)c3Cl)CC2)CC1` [Compound 6a, 3-(trans-4-(2-(4-(2,3-Dichlorophenyl)piperazin-1-yl)ethyl)cyclohexyl)-1,1-dimethylurea], the “5-HT2C IP-1 Emax ± SEM” value at 5-HT2C [1] (agonist mode) amounted to 49.2 ± 6.6%; on 5-HT2C [2] (antagonist mode) it was 9.2 ± 2.7%. Also, at 5-HT2C [1] (agonist mode, read-out: 5-HT2C IP-1 EC50 ± SEM), the EC50 was found to be 215 ± 22 nM. For the same compound, the IC50 against 5-HT2C [2] was more than 5000 nM. Also, the “5-HT1A [35S]GTPγS Emax ± SEM” value at 5-HT1A [3] (agonist mode) is given as 89.6 ± 3.6%. Also, on D2LR [4], the “D2R activity in words, GPA assay” value is given as “maximal effect similar to quinpirole”. In addition, the “D2R activity in words, miniG assay” value at D2LR [5] is recorded as “D2R partial agonists”. The “effect on lever pressing / PR break-point for cocaine” value in test [6] is reported as “reduce the reinforcing efficacy of cocaine”.

At 5-HT2C [1], `CCc1cccc(N2CCN(CC[C@H]3CC[C@H](NC(=O)CCOC)CC3)CC2)c1Cl` [Compound 13b, N-(trans-4-(2-(4-(2-Chloro-3-ethylphenyl)piperazin-1-yl)ethyl)cyclohexyl)-3-methoxypropanamide] returned an EC50 of 43.5 ± 5.3 nM. The “5-HT2A IP-1 Emax ± SEM” value came to 62.7 ± 5.8% on 5-HT2A [7] and 25.9 ± 1.9% at 5-HT2A [9]. Besides, the entries for the “5-HT2B IP-1 Emax ± SEM” value at 5-HT2B [8] and on 5-HT2B [10] were 100 ± 0% and less than 1%, respectively.

Usually Ki stands for the equilibrium dissociation constant of an inhibitor or competing ligand from its target. Take `COCCC(=O)N[C@H]1CC[C@H](CCN2CCN(c3cccc(OC)c3F)CC2)CC1` [Compound 13c, N-(trans-4-(2-(4-(2-Fluoro-3-methoxyphenyl)piperazin-1-yl)ethyl)cyclohexyl)-3-methoxypropanamide]: the Ki on 5-HT1A [11] was determined as 69.9 ± 1.7 nM; at D4R it was 734 ± 16 nM; on 5-HT2B [12] it was 29.6 ± 9.5 nM. In addition, the midpoint of inhibition against 5-HT2B [8], the IC50, lay at 519 ± 81 nM. The “5-HT2B IP-1 Emax ± SEM” value is on record as 82 ± 18% on 5-HT2B [8] and less than 1% at 5-HT2B [10]. The EC50 was more than 10000 nM on 5-HT2B [10] (read-out: 5-HT2B IP-1 EC50 ± SEM) and 121 ± 10 nM on 5-HT1A [3]. The “D2R activity in words, GPA assay” value at D2LR [4] is “full agonists”. The “D2R activity in words, miniG assay” value on D2LR [5] is recorded as “full agonists”.

(Values after US20260356809A1 (The United States of America, as represented by the …, priority 2022, published 2026).)
